# Values of other authors in patent publication US11013684B2, “Body fluid expanders comprising N-substituted aminosulfonic acid buffers” (AQIX, Ltd., priority 2007, dated 2021).
# Assays:
# [1] = for −ΔpKa/° C.: aqueous solution, 20° C.
# cultured mammalian cells = details: long term studies
Compound,−ΔpKa/° C. [1],toxicity to cultured mammalian cells (cultured mammalian cells),pKa @ 20° C. ([1]; aqueous solution at 20° C.)
"O=S(=O)(O)CCN(CCO)CCO [BES, N,N-bis (2-hydroxyethyl)-2-aminoethanesulfonic acid]",0.016,non-toxic,
"O=C(O)CN(CCO)CCO [BICINE, N,N-bis (2-hydroxyethyl) glycine]",0.018,,
"O=S(=O)(O)CCN1CCN(CCS(=O)(=O)O)CC1 [PIPES, piperazine-N,N′-bis(2-ethanesulfonic acid)]",0.009,,6.80
"O=C(O)CNC(CO)(CO)CO [TRICINE, N-tris(hydroxymethyl) methylglycine]",0.021,,
